From patent US9879013B2, “Purinone derivative” (ONO PHARMACEUTICAL CO., LTD., priority 2010, dated 2018)

What was measured:
[1] = target: Fyn (Homo sapiens (Human), UniProt P06241); test: Fyn inhibitory activity, selectivity for Btk (Z'-LYTE kinase assay); type: biochemical; settings: ratio of the IC50 values of the individual kinases
Protocol: (§1) The inhibitory activity for other kinases (for example, Lck, Fyn, and LynA (all from Invitrogen Corporation) was measured in the same manner as described above using the particular kinase in place of the Btk.

[2] = target: LynA (Homo sapiens (Human), UniProt P07948); test: LynA inhibitory activity, selectivity for Btk (Z'-LYTE kinase assay); type: biochemical; settings: ratio of the IC50 values of the individual kinases
LynA, sequence (P07948 whole entry): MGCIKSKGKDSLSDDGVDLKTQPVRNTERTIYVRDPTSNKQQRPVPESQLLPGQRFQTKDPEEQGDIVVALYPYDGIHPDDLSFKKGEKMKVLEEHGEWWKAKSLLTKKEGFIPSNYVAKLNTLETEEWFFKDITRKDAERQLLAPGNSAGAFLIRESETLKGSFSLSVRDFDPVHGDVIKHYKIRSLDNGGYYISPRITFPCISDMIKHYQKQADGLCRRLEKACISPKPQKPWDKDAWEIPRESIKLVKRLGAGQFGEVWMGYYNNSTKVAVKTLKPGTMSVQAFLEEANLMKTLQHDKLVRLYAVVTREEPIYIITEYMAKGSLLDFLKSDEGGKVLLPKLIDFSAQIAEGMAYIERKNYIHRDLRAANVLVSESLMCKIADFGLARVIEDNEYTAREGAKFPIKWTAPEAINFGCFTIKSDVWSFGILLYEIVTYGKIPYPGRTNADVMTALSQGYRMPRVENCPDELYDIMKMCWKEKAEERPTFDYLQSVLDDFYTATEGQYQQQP
Protocol: as §1

[3] = system: B cells (CD20-positive CD3-negative cells) of human PBMC; test: B cell activation using human PBMC (CD69-positive signal, FACS); type: cell-based; settings: anti-IgM antibody 1 μg/mL / IL-4 3 ng/mL, 22 hours
Protocol: Measurement of B Cell Activation or T Cell Activation Using Human PBMC
A 10 mmol/L solution of the test compound in DMSO was dispensed into a 96-well plate (Nunc) and a 5× dilution series was prepared using DMSO. A 100× concentration test compound dilution solution was prepared by an additional 10× dilution with RPMI1640 medium (contained 10% HI-FBS, 1% penicillin). Human peripheral blood mononuclear cells (PBMC) were diluted with the medium to provide a density of 2×10^6 cells/mL. 396 μL of the cell suspension was added to a 96-well plate into which 4 μL of the 100× concentration test compound dilution solution or the solvent (10% DMSO) had already been introduced and incubation was performed for 10 minutes at 37° C. and 5% CO2. 10 μL of an anti-IgM antibody (Southern Biotech)/IL-4 (R & D Systems) solution or an anti-CD3/CD28 antibody bead suspension (Invitrogen Corporation) was added to a 96-well plate and 90 μL of the cell suspension prepared as described above was also added (final concentrations: anti-IgM antibody=1 μg/mL, IL-4=3 ng/mL, and anti-CD3/CD28 antibody beads=2×10^6 beads/mL). 10 μL of the medium was added to the unstimulated sample wells in place of these stimulating substances, and standing at 37° C. and 5% CO2 was again performed. Incubation was carried out for 16 hours in the case of the evaluation of T cell activation and for 22 hours in the case of the evaluation of B cell activation. 100 μL Cytofix Buffer (BD Biosciences) was added; holding for 15 minutes at 37° C. was performed; centrifugation for 10 minutes at 1500 rpm was carried out; and the supernatant was removed. 200 μL of Perm buffer II (BD Biosciences) at −20° C. was added; holding for 30 minutes on ice was performed; centrifugation for 10 minutes at 1500 rpm was carried out; and the supernatant was removed. 0.5 mL Stain buffer (BD Biosciences) was added and centrifugation was carried out for 10 minutes at 1500 rpm. 100 μL of a mixed antibody solution was added and incubation was performed for 30 minutes on ice in the dark. The antibody was the 10× dilution with Stain Buffer of the 1:1:1 mixture of PerCP-labeled anti-CD3 antibody (BD Biosciences), AF488-labeled anti-CD20 antibody (BD Biosciences), and PE-labeled anti-CD69 antibody (BD Biosciences). 0.4 mL Stain Buffer was added and the supernatant was removed. […] The CD69-positive signal (average fluorescence intensity) of the CD20-positive CD3-negative cells (B cells) or CD3-positive CD20-negative cells (T cells) was measured. After subtracting the value for the unstimulated sample, the % inhibition with reference to the value for the stimulated control sample was determined. The % inhibition was graphically plotted using Prism (ver. 5.01 J, GraphPad Software) and the IC50 value was determined.

[4] = target: Human CYP2C8 (Homo sapiens (Human), UniProt P10632); test: Inhibitory action on human CYP2C8; type: in vitro ADME
Human CYP2C8, sequence (P10632 whole entry): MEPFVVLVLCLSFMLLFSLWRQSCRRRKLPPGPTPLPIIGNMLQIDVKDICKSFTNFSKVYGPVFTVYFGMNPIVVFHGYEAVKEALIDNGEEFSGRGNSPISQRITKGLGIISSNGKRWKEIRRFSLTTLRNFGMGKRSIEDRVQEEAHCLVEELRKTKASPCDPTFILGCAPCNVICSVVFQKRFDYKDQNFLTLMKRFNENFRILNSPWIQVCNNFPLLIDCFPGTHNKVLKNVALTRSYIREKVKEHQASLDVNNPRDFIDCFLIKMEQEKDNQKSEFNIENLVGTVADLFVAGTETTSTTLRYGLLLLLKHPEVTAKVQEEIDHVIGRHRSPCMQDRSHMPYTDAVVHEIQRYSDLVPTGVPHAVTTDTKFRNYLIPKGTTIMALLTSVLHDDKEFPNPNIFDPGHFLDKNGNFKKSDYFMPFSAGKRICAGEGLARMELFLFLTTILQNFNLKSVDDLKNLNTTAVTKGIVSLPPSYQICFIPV
Protocol: (§2) Measurement of the Inhibitory Activity on Drug-Metabolizing Enzymes (Inhibitory Action on Human CYP2C8 and Human CYP2C19)
The reaction was carried out in a 96-well plate. […] 100 μL of this reaction mixture and 50 μL of the test compound prepared as described above and the positive control solution prepared as described above were dispensed into each well and pre-incubation was carried out at 10 minutes for 37° C. The reaction was started by the addition of 50 μL NADPH solution (final concentration=1 mmol/L) and incubation was carried out for 30 minutes at 37° C.

[5] = target: Human CYP2C19 (Homo sapiens (Human), UniProt P33261); test: Inhibitory action on human CYP2C19; type: in vitro ADME
Human CYP2C19, sequence (P33261 whole entry): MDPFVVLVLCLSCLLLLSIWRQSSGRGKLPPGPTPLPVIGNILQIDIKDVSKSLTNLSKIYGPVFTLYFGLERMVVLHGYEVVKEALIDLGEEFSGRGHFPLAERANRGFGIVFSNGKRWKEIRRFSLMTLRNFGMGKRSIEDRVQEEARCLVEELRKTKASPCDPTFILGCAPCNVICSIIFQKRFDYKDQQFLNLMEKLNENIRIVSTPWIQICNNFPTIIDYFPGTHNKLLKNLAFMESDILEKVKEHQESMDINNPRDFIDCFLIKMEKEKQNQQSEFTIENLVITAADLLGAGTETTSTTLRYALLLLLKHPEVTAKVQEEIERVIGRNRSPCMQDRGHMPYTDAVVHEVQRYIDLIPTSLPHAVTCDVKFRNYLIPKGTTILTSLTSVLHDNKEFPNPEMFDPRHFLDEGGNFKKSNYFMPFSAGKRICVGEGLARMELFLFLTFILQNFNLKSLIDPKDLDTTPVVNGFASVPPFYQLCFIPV
Protocol: as §2
The reaction was carried out in a 96-well plate. The positive control substances (CYP2C8: ketoconazole, CYP2C19: tranylcypromine) were adjusted (CYP2C8: 0.6 and 6 mmol/L, CYP2C19: 0.9 and 9 mmol/L) with DMSO to concentrations that were 300 times the final concentration, and solutions were prepared (CYP2C8: 8 and 80 μmol/L, CYP2C19: 12 and 120 μmol/L) by 75× dilution with purified water that contained 2.7% acetonitrile. The test compounds were adjusted to […] with DMSO and were adjusted to 4 and 40 μmol/L by 75× dilution with purified water that contained 2.7% acetonitrile. A reaction mixture was then prepared (the numerical values are final concentrations) by the addition of potassium phosphate buffer (pH 7.4), magnesium chloride ([…]), substrate (CYP2C8: dibenzylfluorescein 1 μmol/L, CYP2C19: 3-cyano-7-ethoxycoumarin 25 μmol/L), and E. coli-expressed liver microsome CYP2C8 (Cypex, 10 pmol/L) and CYP2C19 (Cypex, 3 pmol/L). 100 μL of this reaction mixture and 50 μL of the test compound prepared as described above and the positive control solution prepared as described above were dispensed into each well and pre-incubation was carried out at 10 minutes for 37° C. The reaction was started by the addition of 50 μL NADPH solution (final concentration=1 mmol/L) and incubation was carried out for 30 minutes at 37° C. The fluorescence intensity was measured (CYP2C8: excitation wavelength=485 nm, fluorescence wavelength=538 nm; CYP2C19: excitation wavelength=409 nm, fluorescence wavelength=460 nm) immediately after the addition of the NADPH and after incubation for 30 minutes.

[6] = Stability in the human liver microsome; settings: 0.5 mg/mL microsomes, NADPH, 15 minutes at 37° C.
Protocol: Evaluation of the Stability in the Rat and Human Liver Microsome
A 0.25 mmol/L solution was prepared by diluting the test compound (10 mmol/L DMSO solution, 5 μL) with an aqueous 50% acetonitrile solution (195 μL).
20 μL was collected immediately after the start and the reaction was stopped by the addition to 180 μL of acetonitrile that contained an internal standard (warfarin). 20 μL of this solution was stirred with 180 μL of an aqueous 50% acetonitrile solution on a filter plate for protein depletion followed by suction filtration, and the filtrate was used as the standard sample.
The previously indicated reaction solution was incubated for 15 minutes at 37° C., and 20 μL was then added to 180 μL cold acetonitrile (contained the internal standard warfarin) to stop the reaction. 20 μL of this was stirred with 180 μL of an aqueous 50% acetonitrile solution on a filter plate for protein depletion followed by suction filtration, and the filtrate was used as the standard sample.

Fyn, sequence (P06241 whole entry): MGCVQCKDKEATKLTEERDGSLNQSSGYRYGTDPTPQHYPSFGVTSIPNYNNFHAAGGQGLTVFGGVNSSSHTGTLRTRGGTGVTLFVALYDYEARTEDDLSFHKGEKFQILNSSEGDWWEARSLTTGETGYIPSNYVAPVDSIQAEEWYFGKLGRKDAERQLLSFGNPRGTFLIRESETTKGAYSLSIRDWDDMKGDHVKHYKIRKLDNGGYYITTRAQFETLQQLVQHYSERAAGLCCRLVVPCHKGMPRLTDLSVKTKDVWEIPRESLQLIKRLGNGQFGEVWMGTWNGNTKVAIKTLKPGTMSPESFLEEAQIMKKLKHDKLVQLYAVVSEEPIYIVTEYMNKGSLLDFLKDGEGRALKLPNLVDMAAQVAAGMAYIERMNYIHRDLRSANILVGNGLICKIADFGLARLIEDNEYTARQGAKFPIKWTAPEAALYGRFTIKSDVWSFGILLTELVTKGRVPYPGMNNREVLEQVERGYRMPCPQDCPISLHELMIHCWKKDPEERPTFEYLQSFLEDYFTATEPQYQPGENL

Fyn[IC50]/Btk[IC50] [1]: 453
LynA[IC50]/Btk[IC50] [2]: 459
IC50 [4]: > 10 µM
IC50 [5]: > 10 µM
Residual ratio (%) in the human liver microsome [6]: 87.0%
SMILES: C=CC(=O)N1CC(n2c(=O)n(-c3ccc(Oc4ccccc4)cc3)c3c(N)ncnc32)C1 [Example 8, 9-(1-acryloyl-3-azetidinyl)-6-amino-7-(4-phenoxyphenyl)-7,9-dihydro-8H-purin-8-one]
IC50 [3]: 0.021 µM
